Experimental data as given in patent US11420958B2, “Aryl and heteroaryl substituted indole compounds” (BRISTOL-MYERS SQUIBB COMPANY, priority 2017, dated 2022).

Columns and labels:
Assay type in all cases: cell-based
human TLR7 = human TLR7 (Homo sapiens (Human), UniProt Q9NYK1); assay: TLR7 inhibition reporter assay (HEK-Blue, SEAP); details: HEK-Blue cells overexpressing human TLR7, gardiquimod 7.5 μM stimulation
Procedure, shortened: (§1)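 HEK-Blue cells overexpressing the receptor carry a SEAP reporter under IFN-β minimal promoter with NF-κB/AP-1 sites. Compounds (0.05 nM–50 μM final) were preincubated 30 min at room temperature, then cells were stimulated with gardiquimod 7.5 μM (TLR7), R848 15.9 μM (TLR8) or ODN2006 5 nM (TLR9) for 22 h at 37 °C.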

human TLR8 = human TLR8 (Homo sapiens (Human), UniProt Q9NR97); assay: TLR8 inhibition reporter assay (HEK-Blue, SEAP); details: HEK-Blue cells overexpressing human TLR8, R848 15.9 μM stimulation
Procedure, shortened: as §1

human TLR9 = human TLR9 (Homo sapiens (Human), UniProt Q9NR96); assay: TLR9 inhibition reporter assay (HEK-Blue, SEAP); details: HEK-Blue cells overexpressing human TLR9, ODN2006 5 nM stimulation
Procedure, shortened: as §1

human TLR9, sequence (Q9NR96 26-1032): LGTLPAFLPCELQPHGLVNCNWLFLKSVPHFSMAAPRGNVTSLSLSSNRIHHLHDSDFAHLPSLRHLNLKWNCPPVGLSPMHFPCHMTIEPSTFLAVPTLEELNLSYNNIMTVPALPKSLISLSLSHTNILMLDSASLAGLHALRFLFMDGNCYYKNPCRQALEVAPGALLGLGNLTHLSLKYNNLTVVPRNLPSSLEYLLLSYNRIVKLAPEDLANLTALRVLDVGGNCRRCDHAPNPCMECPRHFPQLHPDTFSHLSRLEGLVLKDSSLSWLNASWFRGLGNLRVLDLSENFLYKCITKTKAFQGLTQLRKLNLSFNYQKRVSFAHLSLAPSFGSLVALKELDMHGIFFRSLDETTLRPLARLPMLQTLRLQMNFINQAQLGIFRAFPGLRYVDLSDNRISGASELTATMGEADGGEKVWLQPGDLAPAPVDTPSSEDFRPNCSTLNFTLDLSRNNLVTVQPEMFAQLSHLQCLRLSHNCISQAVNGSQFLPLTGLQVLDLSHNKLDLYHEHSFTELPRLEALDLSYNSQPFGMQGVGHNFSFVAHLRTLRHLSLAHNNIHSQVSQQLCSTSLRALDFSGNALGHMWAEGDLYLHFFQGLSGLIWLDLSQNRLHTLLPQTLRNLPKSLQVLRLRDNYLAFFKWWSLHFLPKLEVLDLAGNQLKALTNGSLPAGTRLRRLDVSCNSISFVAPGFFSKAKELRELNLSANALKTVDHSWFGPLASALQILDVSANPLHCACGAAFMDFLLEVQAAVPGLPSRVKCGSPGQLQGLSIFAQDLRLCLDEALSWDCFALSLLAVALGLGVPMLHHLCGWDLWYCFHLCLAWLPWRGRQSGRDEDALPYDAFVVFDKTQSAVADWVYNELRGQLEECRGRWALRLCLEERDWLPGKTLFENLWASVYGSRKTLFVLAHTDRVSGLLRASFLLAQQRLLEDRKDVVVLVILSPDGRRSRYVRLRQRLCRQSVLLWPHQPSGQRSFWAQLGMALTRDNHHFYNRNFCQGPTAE
human TLR7, sequence (Q9NYK1 27-1049): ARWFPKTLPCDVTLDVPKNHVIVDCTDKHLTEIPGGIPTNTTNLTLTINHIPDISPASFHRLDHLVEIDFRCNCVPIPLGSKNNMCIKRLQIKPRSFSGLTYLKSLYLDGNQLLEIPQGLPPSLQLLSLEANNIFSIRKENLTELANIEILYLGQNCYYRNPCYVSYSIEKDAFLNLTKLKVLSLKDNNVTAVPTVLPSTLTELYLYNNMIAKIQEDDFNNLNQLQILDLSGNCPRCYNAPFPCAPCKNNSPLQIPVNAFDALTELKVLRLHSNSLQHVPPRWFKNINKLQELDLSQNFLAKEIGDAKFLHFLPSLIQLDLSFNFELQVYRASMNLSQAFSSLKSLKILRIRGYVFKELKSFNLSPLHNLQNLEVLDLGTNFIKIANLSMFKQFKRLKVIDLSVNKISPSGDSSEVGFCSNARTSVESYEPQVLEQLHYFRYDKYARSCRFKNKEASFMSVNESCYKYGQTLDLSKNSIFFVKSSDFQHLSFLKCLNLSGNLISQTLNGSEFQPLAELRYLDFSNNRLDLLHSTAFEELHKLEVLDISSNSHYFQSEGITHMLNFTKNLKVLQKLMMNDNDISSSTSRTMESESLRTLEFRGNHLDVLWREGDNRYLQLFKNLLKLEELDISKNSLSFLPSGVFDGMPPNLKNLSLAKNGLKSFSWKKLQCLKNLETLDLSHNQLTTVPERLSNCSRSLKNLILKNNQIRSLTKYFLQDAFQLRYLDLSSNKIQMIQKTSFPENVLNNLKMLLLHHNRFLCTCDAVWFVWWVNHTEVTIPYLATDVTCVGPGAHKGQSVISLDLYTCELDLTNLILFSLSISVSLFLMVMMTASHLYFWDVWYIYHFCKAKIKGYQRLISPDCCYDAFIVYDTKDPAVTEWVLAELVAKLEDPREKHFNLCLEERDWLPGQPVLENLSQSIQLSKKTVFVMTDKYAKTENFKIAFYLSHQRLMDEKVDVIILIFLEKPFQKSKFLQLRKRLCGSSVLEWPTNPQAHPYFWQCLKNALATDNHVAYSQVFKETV
human TLR8, sequence (Q9NR97 27-1041): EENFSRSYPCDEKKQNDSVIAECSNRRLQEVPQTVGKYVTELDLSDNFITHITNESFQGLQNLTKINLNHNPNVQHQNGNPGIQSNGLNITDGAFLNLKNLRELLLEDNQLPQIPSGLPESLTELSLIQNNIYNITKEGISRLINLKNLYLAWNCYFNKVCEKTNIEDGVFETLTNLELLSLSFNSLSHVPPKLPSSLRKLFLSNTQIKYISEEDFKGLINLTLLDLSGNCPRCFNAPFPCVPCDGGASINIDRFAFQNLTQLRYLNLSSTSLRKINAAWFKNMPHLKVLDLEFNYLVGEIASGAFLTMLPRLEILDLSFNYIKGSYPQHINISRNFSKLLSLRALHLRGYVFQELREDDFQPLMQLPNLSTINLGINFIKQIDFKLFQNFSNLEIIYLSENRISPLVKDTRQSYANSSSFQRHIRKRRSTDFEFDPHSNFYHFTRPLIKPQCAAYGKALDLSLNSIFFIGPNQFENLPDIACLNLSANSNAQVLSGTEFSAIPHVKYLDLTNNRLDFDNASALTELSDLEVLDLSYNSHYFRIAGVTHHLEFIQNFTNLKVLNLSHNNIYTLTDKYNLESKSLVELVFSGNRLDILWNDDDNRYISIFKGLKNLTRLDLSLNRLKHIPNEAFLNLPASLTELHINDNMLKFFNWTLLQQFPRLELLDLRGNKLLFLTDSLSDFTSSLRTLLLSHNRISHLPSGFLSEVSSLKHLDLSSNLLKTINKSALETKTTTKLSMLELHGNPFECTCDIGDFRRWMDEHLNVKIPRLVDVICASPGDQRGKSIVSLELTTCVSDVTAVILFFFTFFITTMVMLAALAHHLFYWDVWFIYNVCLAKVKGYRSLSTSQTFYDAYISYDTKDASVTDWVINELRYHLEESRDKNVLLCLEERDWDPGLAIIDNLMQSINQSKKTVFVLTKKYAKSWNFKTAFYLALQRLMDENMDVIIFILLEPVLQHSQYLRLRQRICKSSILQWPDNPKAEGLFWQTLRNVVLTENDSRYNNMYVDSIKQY

SMILES	IC50 (human TLR7) [nM]	IC50 (human TLR8) [nM]	IC50 (human TLR9) [nM]
CC(C)c1c(-c2ccnc3[nH]ncc23)[nH]c2ccc(-c3cccc(CO)c3)cc12 [Example 414, (3-(3-isopropyl-2-(1H-pyrazolo[3,4-b]pyridin-4-yl)-1H-indol-5-yl)phenyl)methanol]	771	63	> 50000
COc1ccc(-c2[nH]c3ccc(-c4ccc(N5CCN(C(C)C)CC5)cc4)cc3c2C(C)C)cc1OC [Example 382, 2-(3,4-dimethoxyphenyl)-3-isopropyl-5-(4-(4-isopropylpiperazin-1-yl)phenyl)-1H-indole]	157	32	917
CCc1c(-c2ccnc(C)c2)[nH]c2ccc(-c3noc(CCC4CCNCC4)n3)cc12 [Example 448, 3-(3-ethyl-2-(2-methylpyridin-4-yl)-1H-indol-5-yl)-5-(2-(piperidin-4-yl)ethyl)-1,2,4-oxadiazole]	327	50	1800
COc1ccc(-c2[nH]c3ccc(-c4nnc(C(=O)NCCNC(C)=O)o4)cc3c2C(C)C)cc1OC [Example 100, N-(2-acetamidoethyl)-5-(2-(3,4-dimethoxyphenyl)-3-isopropyl-1H-indol-5-yl)-1,3,4-oxadiazole-2-carboxamide]	844	31	> 50000
COc1ccc(-c2[nH]c3ccc(-c4cccc(N5CCN(CC(C)C)CC5)c4)cc3c2C(C)C)cc1OC [Example 371, 2-(3,4-dimethoxyphenyl)-5-(3-(4-isobutylpiperazin-1-yl)phenyl)-3-isopropyl-1H-indole]	894	176	10200
COc1ccc(-c2[nH]c3ccc(-c4ccc(C5=CCNCC5)cc4)cc3c2C)cc1OC [Example 408, 2-(3,4-dimethoxyphenyl)-3-methyl-5-(4-(1,2,3,6-tetrahydropyridin-4-yl)phenyl)-1H-indole]	8620	> 50000	729
COc1ccc(-c2[nH]c3ccc(-c4nnc(C(=O)N5CCC(N6CCOCC6)C5)o4)cc3c2C(C)C)cc1OC (stereo not drawn) [Example 99, (5-(2-(3,4-dimethoxyphenyl)-3-isopropyl-1H-indol-5-yl)-1,3,4-oxadiazol-2-yl)(3-morpholinopyrrolidin-1-yl)methanone]	565	86	16300
Cc1cc(-c2[nH]c3ccc(-c4ccnc(-c5cn[nH]c5)c4)cc3c2C(C)C)ccn1 [Example 258, 5-(2-(1H-pyrazol-4-yl)pyridin-4-yl)-3-isopropyl-2-(2-methylpyridin-4-yl)-1H-indole]	224	4	12000
CC(C)c1c(-c2ccnc3[nH]ncc23)[nH]c2ccc(-c3ccc4ncccc4c3)cc12 [Example 469, 6-(3-isopropyl-2-(1H-pyrazolo[3,4-b]pyridin-4-yl)-1H-indol-5-yl)quinoline]	606	129	> 50000
CCc1c(-c2ccc(OC)c(OC)c2)[nH]c2ccc(-c3noc(CCOC)n3)cc12 [Example 451, 3-(2-(3,4-dimethoxyphenyl)-3-ethyl-1H-indol-5-yl)-5-(2-methoxyethyl)-1,2,4-oxadiazole]	3980	1290	> 50000
CCc1c(-c2ccc(OC)c(OC)c2)[nH]c2ccc(-c3noc(CCC4CCNCC4)n3)cc12 [Example 447, 3-(2-(3,4-dimethoxyphenyl)-3-ethyl-1H-indol-5-yl)-5-(2-(piperidin-4-yl)ethyl)-1,2,4-oxadiazole]	740	201	3460
COc1ccc(-c2[nH]c3ccc(-c4cccc(C(=O)N5CC6CNCC6C5)c4)cc3c2CC(F)(F)F)cc1OC (stereo not drawn) [Example 42, (3-(2-(3,4-dimethoxyphenyl)-3-(2,2,2-trifluoroethyl)-1H-indol-5-yl)phenyl)(hexahydropyrrolo[3,4-c]pyrrol-2(1H)-yl)methanone]	448	27	710
COc1ccc(-c2[nH]c3ccc(-c4nnc(CN5CC[C@H](NC(C)=O)C5)o4)cc3c2C(C)C)cc1OC [Example 117, (S)—N-(1-((5-(2-(3,4-dimethoxyphenyl)-3-isopropyl-1H-indol-5-yl)-1,3,4-oxadiazol-2-yl)methyl)pyrrolidin-3-yl)acetamide]	704	50	> 50000
CCc1c(-c2ccc(OC)c(OC)c2)[nH]c2ccc(-c3nnc(C(=O)N4CC5CNCC5C4)o3)cc12 (stereo not drawn) [Example 40, (5-(2-(3,4-dimethoxyphenyl)-3-ethyl-1H-indol-5-yl)-1,3,4-oxadiazol-2-yl)(hexahydropyrrolo[3,4-c]pyrrol-2(1H)-yl)methanone]	154	18	325

These reach a lower IC50 (human TLR7). Values come first.

IC50 (human TLR7) [nM]	IC50 (human TLR8) [nM]	IC50 (human TLR9) [nM]	SMILES
23	16	2210	CNC(=O)CN1CCc2cc(-c3ccc4[nH]c(-c5cc(C)nc(C)c5)c(C(C)C)c4c3)sc2C1 [Example 330, 2-(2-(2-(2,6-dimethylpyridin-4-yl)-3-isopropyl-1H-indol-5-yl)-4,7-dihydrothieno[2,3-c]pyridin-6(5H)-yl)-N-methylacetamide]
12	1.9	202	Cc1cc(-c2[nH]c3ccc(-c4nc(C(=O)NCCCN5CCN(C)CC5)co4)cc3c2C(C)C)cc(C)n1 [Example 286, 2-(2-(2,6-dimethylpyridin-4-yl)-3-isopropyl-1H-indol-5-yl)-N-(3-(4-methylpiperazin-1-yl)propyl)oxazole-4-carboxamide]
17	7.5	14400	Cc1cc(-c2[nH]c3ccc(-c4cnc(N)cn4)cc3c2C(C)C)ccn1 [Example 359, 5-(3-isopropyl-2-(2-methylpyridin-4-yl)-1H-indol-5-yl)pyrazin-2-amine]
75	3.9	706	COc1ccc(-c2[nH]c3ccc(-c4nnc(C[C@H]5CCCCN5)o4)cc3c2C(C)C)cc1OC [Example 54, (R)-2-(2-(3,4-dimethoxyphenyl)-3-isopropyl-1H-indol-5-yl)-5-(piperidin-2-ylmethyl)-1,3,4-oxadiazole]
25	6.9	35000	Cc1cc(-c2[nH]c3ccc(-c4nn5c(c4C(N)=O)CNCC5)cc3c2C(C)C)ccn1 [Example 216, 2-(3-isopropyl-2-(2-methylpyridin-4-yl)-1H-indol-5-yl)-4,5,6,7-tetrahydropyrazolo[1,5-a]pyrazine-3-carboxamide]
50	14	1390	COc1ccc(-c2[nH]c3ccc(-c4cnc(N5CCNCC5)cc4C)cc3c2C(C)C)cc1OC [Example 419, 2-(3,4-dimethoxyphenyl)-3-isopropyl-5-(4-methyl-6-(piperazin-1-yl)pyridin-3-yl)-1H-indole]
56	21	> 50000	Cc1cc(-c2[nH]c3ccc(-c4ccc(N(C)C)nc4)cc3c2C(C)C)ccn1 [Example 246, 5-(3-isopropyl-2-(2-methylpyridin-4-yl)-1H-indol-5-yl)-N,N-dimethylpyridin-2-amine]
54	5.4	166	CC(C)c1c(-c2ccnc3[nH]ncc23)[nH]c2ccc(-c3nnc([C@@H]4CCCNC4)o3)cc12 [Example 103, (R)-2-(3-isopropyl-2-(1H-pyrazolo[3,4-b]pyridin-4-yl)-1H-indol-5-yl)-5-(piperidin-3-yl)-1,3,4-oxadiazole]
63	84	11500	Cc1cc(-c2[nH]c3ccc(-c4cc(F)c5nc(C)cn5c4)cc3c2C(C)C)cc(C)n1 [Example 366, 6-(2-(2,6-dimethylpyridin-4-yl)-3-isopropyl-1H-indol-5-yl)-8-fluoro-2-methylimidazo[1,2-a]pyridine]
5.2	4.9	945	CNCC(=O)N1CCc2cc(-c3ccc4[nH]c(-c5cc(C)nc(C)c5)c(C(C)C)c4c3)sc2C1 [Example 331, 1-(2-(2-(2,6-dimethylpyridin-4-yl)-3-isopropyl-1H-indol-5-yl)-4,7-dihydrothieno[2,3-c]pyridin-6(5H)-yl)-2-(methylamino)ethan-1-one]
13	2.7	655	Cc1cc(-c2[nH]c3ccc(-c4ccc(N)nc4)cc3c2C(C)C)cc(C)n1 [Example 236, 5-(2-(2,6-dimethylpyridin-4-yl)-3-isopropyl-1H-indol-5-yl)pyridin-2-amine]
27	6.8	738	Cc1cc(-c2[nH]c3ccc(-c4cccc(C(=O)N5CC6CNCC6C5)c4)cc3c2C(C)C)ccn1 (stereo not drawn) [Example 15, (hexahydropyrrolo[3,4-c]pyrrol-2(1H)-yl)(3-(3-isopropyl-2-(2-methylpyridin-4-yl)-1H-indol-5-yl)phenyl)methanone]
38	6.7	5040	Cc1cc(-c2[nH]c3ccc(-c4nnc(C5CNCCO5)o4)cc3c2C(C)C)ccn1 (stereo not drawn) [Example 70, 2-(5-(3-isopropyl-2-(2-methylpyridin-4-yl)-1H-indol-5-yl)-1,3,4-oxadiazol-2-yl)morpholine]
38	82	> 50000	COc1ccc(-c2[nH]c3ccc(-c4nnc(CNCCOCCO)o4)cc3c2C(C)C)cc1OC [Example 112, 2-(2-(((5-(2-(3,4-dimethoxyphenyl)-3-isopropyl-1H-indol-5-yl)-1,3,4-oxadiazol-2-yl)methyl)amino)ethoxy)ethan-1-ol]
